This passage reports IC50 and Emax results from US20260137706A1, “METHODS OF TREATING INFLAMMATORY DISEASES” (INTERLINE THERAPEUTICS, INC., priority 2023, published 2026).

Read-outs that look alike come from different tables or passages of the source.

In assay [1] the target is T1, binding of His-XIAP(BIR2)-avi fusion protein to GST-RIPK2 fusion protein (RIPK2/XIAP) (Homo sapiens, UniProt O43353).
T1 construct: made in house; host or cells: baculovirus infected Sf9 cells
Briefly: RIPK2-XIAP binding competition PPI assay (TR-FRET). To be noted: for Emax: read-out: PPI Amax bin. In outline: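 Compounds (in DMSO, 100-fold stock) incubated 120 min at 23 °C with 1 nM GST-RIPK2 (aa 1-310) and 25 nM His-XIAP(BIR2 aa 152-231)-avi, plus anti-His-XL665 and anti-GST-Tb, in pH 7.5 Tris buffer. Read-out: 665/520 nm emission ratio. Normalized to no-inhibitor (0%) and 50 nM GSK583 (−100%); Amax binned A–D.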
Background: In TR-FRET formats the signal depends on donor and acceptor labels being close together.

Assay [2] deals with NF-κB pathway (SEAP) in THP1-Dual cells. Briefly: THP-1 Dual cell SEAP assay (L18-MDP stimulated). In kind it is cell-based. The conditions noted are these: Homo sapiens, THP1-Dual, read-out: NF-κB THP1 IC50 bin. The procedure, abridged:
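IC50 values derive from non-linear regression of % inhibition, calculated against DMSO/L18-MDP-treated wells after media-only subtraction. NF-κB SEAP activity was read at OD 620-655 nm (QUANTI-Blue, 2 h, 37 °C) from supernatants of THP1-Dual cells. Cells had been compound-treated 30 min before overnight (20-24 h) stimulation with 10 ng/mL final L18-MDP.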

The target of assay [3] is T2, GST-RIPK2 fusion protein (human RIPK2, amino acids 1-310) (Homo sapiens, UniProt O43353).
T2 construct: made in house; host or cells: baculovirus infected Sf9 cells
As to the kind of experiment: RIPK2 binding competition assay (TR-FRET, Tracer 199 displacement). The procedure, abridged:
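IC50 derived from the TR-FRET emission ratio (665/620 nm, 337 nm excitation), normalized with no-inhibitor and no-enzyme controls. Incubation 45 min at 22 °C, pH 7.5 Tris buffer, with final 10 nM tracer, 1 nM Sf9-expressed GST-RIPK2 fragment (aa 1-310) and 0.5 nM Tb-labelled anti-GST.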

Where [4] appears, read: PPI IC50 bin, RIPK2/XIAP binding competition PPI assay.
The mark [5] stands for this setting: RIPK2 IC50 (nM), 10 nM Tracer 199, 1 nM GST-RIPK2.
Where [6] appears, read: RIPK2/XIAP binding competition PPI assay, Amax.
[7] abbreviates: RIPK2/XIAP binding competition PPI assay, read-out: PPI IC50 bin.
Setting [8] is: 10 nM Tracer 199, 1 nM GST-RIPK2, read-out: RIPK2 IC50.

The term IC50 denotes the midpoint of a concentration-inhibition curve.

T2 sequence (O43353 1-310): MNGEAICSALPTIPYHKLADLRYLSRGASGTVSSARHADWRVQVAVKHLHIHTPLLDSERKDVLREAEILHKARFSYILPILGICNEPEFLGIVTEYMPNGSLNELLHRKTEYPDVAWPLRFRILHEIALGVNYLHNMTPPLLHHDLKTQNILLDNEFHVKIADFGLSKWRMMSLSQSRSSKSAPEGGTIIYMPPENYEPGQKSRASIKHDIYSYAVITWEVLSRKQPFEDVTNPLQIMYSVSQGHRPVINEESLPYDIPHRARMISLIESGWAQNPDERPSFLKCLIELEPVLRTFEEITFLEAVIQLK
T1 sequence (O43353 1-310 limits assumed): as the sequence (O43353 1-310) above

For the molecule `COc1cc2ncc(-c3cc(F)c(N)nc3F)n2cc1S(=O)(=O)C(C)(C)CN1CCN(C)CC1` [Example 166, 3,6-difluoro-5-(7-methoxy-6-((2-methyl-1-(4-methylpiperazin-1-yl)propan-2-yl)sulfonyl)imidazo[1,2-a]pyridin-3-yl)pyridin-2-amine], the half-maximal inhibitory concentration (IC50) was 2.5 to 20 nM in assay [1] (setting [4]), greater than 1000 nM in assay [2] and 2.5 to 20 nM in assay [3] (setting [5]). Besides, in assay [1], the Emax is greater than 80%.
Consider `COCC(C)(C)S(=O)(=O)c1cn2c(-c3cc(F)c(N)nc3F)cnc2cc1OC` [Example 167, 3,6-difluoro-5-(7-methoxy-6-((1-methoxy-2-methylpropan-2-yl)sulfonyl)imidazo[1,2-a]pyridin-3-yl)pyridin-2-amine], for which, in assay [1] (setting [6]), the Emax was greater than 80%. The IC50 in assay [1] (setting [7]) was greater than 20 nM; in assay [2] it was greater than 1000 nM; in assay [3] (setting [8]), greater than 20 nM.
For `COc1cc2ncc(-c3cc(F)c(N)nc3F)n2cc1S(=O)(=O)C(C)(C)CN1CCOCC1` [Example 168, 3,6-difluoro-5-(7-methoxy-6-((2-methyl-1-morpholinopropan-2-yl)sulfonyl)imidazo[1,2-a]pyridin-3-yl)pyridin-2-amine], in assay [1] (setting [6]), the Emax was greater than 80%. The IC50 lay within 2.5 to 20 nM in assay [1] (setting [7]), 250 to 1000 nM in assay [2] and 2.5 to 20 nM in assay [3] (setting [8]).
On to `C[C@H](O)COc1cc2ncc(-c3cc(Cl)c(N)nc3F)n2cc1S(=O)(=O)C(C)(C)C` [Example 169, (S)-1-((3-(6-amino-5-chloro-2-fluoropyridin-3-yl)-6-(tert-butylsulfonyl)imidazo[1,2-a]pyridin-7-yl)oxy)propan-2-ol], for which, in assay [1] (setting [6]), the Emax is greater than 80%. For the same molecule, the results for the IC50 in assay [1] (setting [7]), in assay [2] and in assay [3] (setting [8]) were 1 to 2.5 nM, 50 to 250 nM and 1 to 2.5 nM, respectively.
As to `C[C@H](O)COc1cc2ncc(-c3cc(F)c(N)nc3F)n2cc1S(=O)(=O)C(C)(C)C` [Example 170, (S)-1-((3-(6-amino-2,5-difluoropyridin-3-yl)-6-(tert-butylsulfonyl)imidazo[1,2-a]pyridin-7-yl)oxy)propan-2-ol], the Emax in assay [1] (setting [6]) is greater than 80%. The IC50 was 1 to 2.5 nM in assay [1] (setting [7]), 50 to 250 nM in assay [2] and 1 to 2.5 nM in assay [3] (setting [8]).
With `C[C@@H](O)COc1cc2ncc(-c3cc(F)c(N)nc3F)n2cc1S(=O)(=O)C(C)(C)C` [Example 171, (R)-1-((3-(6-amino-2,5-difluoropyridin-3-yl)-6-(tert-butylsulfonyl)imidazo[1,2-a]pyridin-7-yl)oxy)propan-2-ol], in assay [1] (setting [6]), the Emax is greater than 80%. The IC50 lay within 2.5 to 20 nM in assay [1] (setting [7]), 50 to 250 nM in assay [2] and 2.5 to 20 nM in assay [3] (setting [8]).
Turning to `C[C@H](CO)Oc1cc2ncc(-c3cc(F)c(N)nc3F)n2cc1S(=O)(=O)C(C)(C)C` [Example 172, (R)-2-((3-(6-amino-2,5-difluoropyridin-3-yl)-6-(tert-butylsulfonyl)imidazo[1,2-a]pyridin-7-yl)oxy)propan-1-ol], the IC50 was 2.5 to 20 nM in assay [1] (setting [4]), 250 to 1000 nM in assay [2] and 2.5 to 20 nM in assay [3] (setting [5]). Besides, the Emax in assay [1] (setting [6]) was greater than 80%.
With `C[C@@H](CO)Oc1cc2ncc(-c3cc(F)c(N)nc3F)n2cc1S(=O)(=O)C(C)(C)C` [Example 173, (S)-2-((3-(6-amino-2,5-difluoropyridin-3-yl)-6-(tert-butylsulfonyl)imidazo[1,2-a]pyridin-7-yl)oxy)propan-1-ol], the values for the IC50 in assay [1] (setting [4]), in assay [2] and in assay [3] (setting [5]) were 2.5 to 20 nM, greater than 1000 nM and 2.5 to 20 nM, respectively. Besides, the Emax in assay [1] (setting [6]) was greater than 80%.
In the case of `C[C@@H](CO)COc1cc2ncc(-c3cc(F)c(N)nc3F)n2cc1S(=O)(=O)C(C)(C)C` [Example 175, (S)-3-((3-(6-amino-2,5-difluoropyridin-3-yl)-6-(tert-butylsulfonyl)imidazo[1,2-a]pyridin-7-yl)oxy)-2-methylpropan-1-ol], the Emax in assay [1] (setting [6]) is greater than 80%. Also, the IC50 was in the range of 1 to 2.5 nM in assay [1] (setting [7]), 50 to 250 nM in assay [2] and 1 to 2.5 nM in assay [3] (setting [8]).
